Test system: STAT5 Y694 phosphorylation
Assay: HTRF experiment: STAT5 Y694 phosphorylation in Hela cells stimulated with human interferon beta
Assay type: cell-based
Conditions: 2 hours pretreatment, 10 nM human interferon beta 30 minutes

Compound: O=C(Cc1ccc(C(F)(F)F)cc1)N1CCC(n2c(=O)[nH]c3ccccc32)CC1 [Example X8, 1-(1-(2-(4-(trifluoromethyl)phenyl)acetyl)piperidin-4-yl)-1H-benzo[d]imidazole-2(3H)-one]
- Example of Effect 3: Inhibiting Ratio@10 μM (HTRF Experiment): 22.60%

— patent publication US20230099441A1, “HETEROCYCLIC COMPOUND, APPLICATION THEREOF, AND COMPOSITION CONTAINING SAME” (GenEros Biopharma Ltd., priority 2019, published 2023)
